Reference: patent publication US20230123585A1, “COMPOSITIONS AND METHODS FOR TREATING OR PREVENTING CANCER USING DEUBIQUITINASE INHIBITORS” (The University of Chicago, priority 2020, published 2023)

Tested on: mRNA m^6A in A375 cells
Experiment: LC-MS/MS quantification of the m^6A/A ratio in mRNA of A375 cells
Assay type: cell-based, human
Details: A375 melanoma cells, 48 h, 10 μM PD0325901 or 0.1 μM trametinib
Experimental: FIGS. 6A-6H: Phosphorylation of the m^6A Methyltransferase Complex May Affect Tumorigenesis. (A) Lysates of A375 stable transfectants harvested at different time points after treatment with cycloheximide (CHX) 10 μg/ml were analyzed by immunoblot. (B) LC-MS/MS quantification of the m^6A/A ratio in mRNA of A375 stable transfectants. (C) After 8 h treatment with 10 μM PD0325901 or 0.1 μM tramentib, cell lysates from A375 cells were analyzed by immunoblot. (D) LC-MS/MS quantification of the m^6A/A ratio in mRNA of A375 cells treated with 10 μM PD0325901 or 0.1 μM tramentib for 48 h. (E) After 8hr treatment with 10 μM EOAI3402143 (EOAI) or 30 μM vialinin A , cell lysates from A375 cells were analyzed by immunoblot. […] (H) LC-MS/MS quantification of the m^6A/A ratio in mRNA of SKBR3 and BT474 cells treated with 1 μM tucatinib and 1 μM lapatinib for 48 h. […]
LC-MS/MS quantification of m^6A in poly(A) RNA. mRNA was extracted from the total RNA using 2 rounds of the Dynabeads mRNA purification kit. […] The nucleosides were quantified by using the nucleoside-to-base ion mass transitions of 282 to 150 (m^6A) and 268 to 136 (A). Quantification was carried out by comparison with a standard curve obtained from pure nucleoside. The ratio of m^6A to A was calculated based on the calibrated concentrations (Liu et al., 2018).

## O=C(NOC[C@H](O)CO)c1ccc(F)c(F)c1Nc1ccc(I)cc1F [PD0325901]
  overall mRNA m^6A levels (m^6A/A ratio): reduce
